ChEMBL document CHEMBL5055685, “Discovery of the First Potent IDO1/IDO2 Dual Inhibitors: A Promising Strategy for Cancer Immunotherapy” (J Med Chem, 2021)
Activity calls are given as the source filed them. No cut-off for these calls is given here.

What was measured:
[1] = target: T1, Indoleamine 2,3-dioxygenase 2 (Homo sapiens, UniProt Q6ZQW0); experiment: Inhibition of IDO2 (unknown origin) assessed as reduction in kynurenine formation using L-tryptophan as substrate by methylene blue reagent based assay
T1 sequence (Q6ZQW0 whole entry): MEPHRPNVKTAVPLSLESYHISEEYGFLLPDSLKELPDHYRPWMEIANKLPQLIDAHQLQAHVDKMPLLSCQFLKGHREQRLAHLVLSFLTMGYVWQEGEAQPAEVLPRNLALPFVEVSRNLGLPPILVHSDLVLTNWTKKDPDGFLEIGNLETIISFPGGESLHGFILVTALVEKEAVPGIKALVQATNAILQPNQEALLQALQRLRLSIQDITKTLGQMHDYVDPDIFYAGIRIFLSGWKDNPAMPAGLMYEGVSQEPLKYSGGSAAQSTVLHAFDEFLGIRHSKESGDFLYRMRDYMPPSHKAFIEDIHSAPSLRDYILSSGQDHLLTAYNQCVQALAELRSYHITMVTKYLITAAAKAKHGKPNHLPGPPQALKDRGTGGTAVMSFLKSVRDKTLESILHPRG

[2] = target: T2, Indoleamine 2,3-dioxygenase 1 (Homo sapiens, UniProt P14902); experiment: Inhibition of IDO1 (unknown origin) assessed as reduction in kynurenine formation using L-tryptophan as substrate by methylene blue reagent based assay
Target sequence in this assay (P14902 whole entry): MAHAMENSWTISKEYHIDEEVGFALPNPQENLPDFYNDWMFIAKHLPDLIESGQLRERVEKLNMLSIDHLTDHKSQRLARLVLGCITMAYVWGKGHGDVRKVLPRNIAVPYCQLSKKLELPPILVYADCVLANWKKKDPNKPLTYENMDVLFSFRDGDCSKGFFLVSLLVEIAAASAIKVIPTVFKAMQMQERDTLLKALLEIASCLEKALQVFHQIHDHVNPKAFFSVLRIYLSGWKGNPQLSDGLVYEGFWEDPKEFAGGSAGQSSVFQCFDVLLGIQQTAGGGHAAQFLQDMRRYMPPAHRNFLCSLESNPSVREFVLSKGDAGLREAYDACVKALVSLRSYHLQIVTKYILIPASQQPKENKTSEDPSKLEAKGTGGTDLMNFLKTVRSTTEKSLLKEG

[3] = target: T2, Indoleamine 2,3-dioxygenase 1; experiment: Inhibition of IDO1 in IFNgamma-stimulated human HeLa cells assessed as reduction in kynurenine formation measured after 48 hrs by spectrophotometry
Target sequence in this assay (P14902 whole entry): as above

[4] = target: T3, Indoleamine 2,3-dioxygenase 2 (Homo sapiens) (UniProt Q6ZQW0); experiment: Inhibition of IDO2 (unknown origin) assessed as reduction in kynurenine formation using L-tryptophan as substrate by methylene blue reagent based assay relative to control; design: concentration or dose not given beside the values; conditions: concentration not given here
T3 sequence (whole entry): T1 sequence (Q6ZQW0 whole entry)

[5] = target: T2, Indoleamine 2,3-dioxygenase 1; experiment: Inhibition of IDO1 (unknown origin) assessed as reduction in kynurenine formation using L-tryptophan as substrate by methylene blue reagent based assay relative to control; design: concentration or dose not given beside the values; conditions: concentration not given here
Target sequence in this assay (P14902 whole entry, looked up): as the sequence (P14902 whole entry) above

CT26 [6] = experiment: Antitumor activity against mouse CT26 cells implanted in BALB/c mouse assessed as tumor growth inhibition at 50 mg/kg, ip bid for 28 days by vernier caliper method relative to control; format: functional; conditions: CT26, 672 h, time 28 day, read-out: TGI
Mus musculus [7] = experiment: In vivo inhibition of IDO2 in BALB/c mouse xenografted with human HCT-116 cells assessed as suppression of IDO2 mRNA expression in tumor by quantitative RT-PCR analysis; format: functional, organism-based
HCT-116 [8] = experiment: Cytotoxicity against human HCT-116 cells assessed as reduction in cell viability by CCK8 assay; format: functional, cell-based
HCT-116 [9] = experiment: Antitumor activity against human HCT-116 cells xenografted in BALB/c nude mouse assessed as tumor growth inhibition at 300 mg/kg, ig bid for 21 days by vernier caliper method; format: functional, organism-based; conditions: time 21.0 day
Mus musculus [10] = experiment: In vivo inhibition of TDO in BALB/c mouse xenografted with human HCT-116 cells assessed as suppression of TDO mRNA expression in tumor by quantitative RT-PCR analysis; format: functional, organism-based
Mus musculus [11] = experiment: In vivo inhibition of IDO1/IDO2 in BALB/c mouse xenografted with human HCT-116 cells assessed as downregulation of Foxp3 mRNA expression in tumor by quantitative RT-PCR analysis; format: functional, organism-based
Mus musculus [12] = experiment: In vivo inhibition of IDO1/IDO2 in BALB/c mouse xenografted with human HCT-116 cells assessed as downregulation of Foxp3 expression in tumor by immunohistochemical assay; format: functional, organism-based
CT26 [13] = experiment: Cytotoxicity against mouse CT26 cells assessed as reduction in cell viability by CCK8 assay; format: functional, cell-based
HT-29 = experiment: Cytotoxicity against human HT-29 cells assessed as reduction in cell viability by CCK8 assay; format: functional, cell-based
Mus musculus [14] = experiment: In vivo inhibition of TDO in BALB/c mouse xenografted with human HCT-116 cells assessed as suppression of TDO expression in tumor by immunohistochemical assay; format: functional, organism-based
Mus musculus [15] = experiment: In vivo inhibition of IDO2 in BALB/c mouse xenografted with human HCT-116 cells assessed as suppression of IDO2 expression in tumor by immunohistochemical assay; format: functional, organism-based

Compound	IC50 [1]	IC50 [2]	inhibition [4]	inhibition [5]	further results
CCC(O)c1cn(CCNc2nonc2/C(=N/O)Nc2ccc(F)c(Br)c2)nn1 (centres undefined)	0.947 µM	0.073 µM			
O/N=C(\Nc1ccc(F)c(Br)c1)c1nonc1NCCn1cc(-c2cccc(O)c2)nn1			13%	38%	IC50 [3]: 0.0136 µM
CC(C)(O)c1cn(CCNc2nonc2/C(=N/O)Nc2ccc(F)c(Br)c2)nn1	0.726 µM	0.115 µM			
O/N=C(\Nc1ccc(F)c(Br)c1)c1nonc1NCCn1cc(-c2ccccc2)nn1			4%	17%	
COc1ccc(-c2cn(CCNc3nonc3/C(=N/O)Nc3ccc(F)c(Br)c3)nn2)cc1			15%	8%	
NS(=O)(=O)NCCNc1nonc1/C(=N/O)Nc1ccc(F)c(Br)c1 [EPACADOSTAT]					inhibition in vivo at 50 mg/kg (CT26 [6]): 49.4%; inhibition (Mus musculus [7]): inactive; IC50 (HCT-116 [8]): 37.1 µM; Activity (HCT-116 [9]): inactive; inhibition (Mus musculus [10]): inactive; inhibition (Mus musculus [11]): inactive; inhibition (Mus musculus [12]): inactive; IC50 (CT26 [13]): 47.1 µM; IC50 (HT-29): 63 µM; inhibition (Mus musculus [14]): inactive; inhibition (Mus musculus [15]): inactive
CCCCc1cn(CCNc2nonc2/C(=N/O)Nc2ccc(F)c(Br)c2)nn1	0.83 µM	0.127 µM			
